# Results from PubChem BioAssay (NCI).
#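 Briefly, cells in 96-well plates were exposed to five compound concentrations for 48 h, and endpoints were estimated by linear interpolation. Here, GI50 denotes the concentration required for 50% inhibition of growth. TGI denotes the concentration required for complete inhibition of growth.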
# Experiments:
# Assay in all cases: NCI-60 cell line screen, 48 h
# NCI-H23 lung = tested on: NCI-H23 lung
# HCC-2998 colon = tested on: HCC-2998 colon
# OVCAR-5 ovarian = tested on: OVCAR-5 ovarian
# LOX IMVI melanoma = tested on: LOX IMVI melanoma
# SW-620 colon = tested on: SW-620 colon
# HS 578T breast = tested on: HS 578T breast
# A549 NSCLC = tested on: A549 NSCLC
# M14 melanoma = tested on: M14 melanoma
# ACHN renal = tested on: ACHN renal
# SK-OV-3 ovarian = tested on: SK-OV-3 ovarian
Compound,GI50 (NCI-H23 lung),TGI (NCI-H23 lung),GI50 (HCC-2998 colon),TGI (HCC-2998 colon),GI50 (OVCAR-5 ovarian),TGI (OVCAR-5 ovarian),GI50 (LOX IMVI melanoma),TGI (LOX IMVI melanoma),GI50 (SW-620 colon),TGI (SW-620 colon),GI50 (HS 578T breast),TGI (HS 578T breast),GI50 (A549 NSCLC),TGI (A549 NSCLC),GI50 (M14 melanoma),TGI (M14 melanoma),GI50 (ACHN renal),TGI (ACHN renal),GI50 (SK-OV-3 ovarian),TGI (SK-OV-3 ovarian)
CN1CCN(Cc2ccc(NC(=O)c3ccc(C#Cc4c(N)ncc5ccc(F)cc45)cc3)cc2C(F)(F)F)CC1,0.968 µM,1.89 µM,0.87 µM,1.62 µM,0.993 µM,1.85 µM,0.929 µM,1.69 µM,0.972 µM,1.87 µM,1.05 µM,3.65 µM,1.05 µM,2.19 µM,0.919 µM,1.71 µM,0.97 µM,1.71 µM,2.2 µM,7.63 µM
O=C(O)c1ccc(N/C=C2\C(=O)c3ccccc3OC2O)cc1O (stereo not given),19 µg/mL,58.4 µg/mL,24.1 µg/mL,45.4 µg/mL,31.2 µg/mL,78.5 µg/mL,22.5 µg/mL,73.3 µg/mL,20.3 µg/mL,48.3 µg/mL,11.2 µg/mL,76.5 µg/mL,55.1 µg/mL,> 150 µg/mL,21.5 µg/mL,47.5 µg/mL,29 µg/mL,84.6 µg/mL,28.8 µg/mL,74.6 µg/mL
COc1ccc(Cl)cc1NC(=O)C(Br)C(Br)C(=O)O (stereo not given),11.9 µM,47.8 µM,8.25 µM,22.2 µM,27.9 µM,57 µM,1.02 µM,2.52 µM,5 µM,> 51.5 µM,43.9 µM,> 100 µM,> 74.3 µM,> 100 µM,14.9 µM,34.9 µM,17.2 µM,> 80.5 µM,> 100 µM,> 100 µM
O=C(N/N=C/c1ccc([N+](=O)[O-])cc1)c1ccc2nc(-c3ccc(Cl)cc3)[nH]c2c1,1.85 µM,11.5 µM,1.48 µM,4.81 µM,4.43 µM,37.8 µM,1.34 µM,3.22 µM,3.44 µM,10.8 µM,3.58 µM,24.4 µM,3.98 µM,24.1 µM,2.73 µM,9.13 µM,4.36 µM,31.9 µM,11.4 µM,39.6 µM
Cc1ccc2c(c1)NC(=O)CC(c1ccccc1)=N2,–,> 100 µM,–,> 100 µM,–,> 100 µM,–,> 100 µM,–,> 100 µM,–,> 100 µM,–,> 100 µM,–,> 100 µM,–,> 100 µM,–,> 100 µM
COc1ccccc1C#Cc1ccccc1C#CCCCCCC#Cc1ccccc1C#Cc1ccccc1OC,43.9 µM,> 100 µM,18.8 µM,69.7 µM,> 100 µM,> 100 µM,98.1 µM,> 100 µM,> 100 µM,> 100 µM,> 100 µM,> 100 µM,> 100 µM,> 100 µM,48.7 µM,> 100 µM,> 100 µM,> 100 µM,> 100 µM,> 100 µM
O=c1cc(-c2ccccc2)[nH]n1-c1nc2ccccc2[nH]1,9.69 µM,> 100 µM,23.1 µM,> 100 µM,12.5 µM,> 100 µM,4.61 µM,28.1 µM,4.48 µM,> 100 µM,7.47 µM,> 100 µM,4.46 µM,> 100 µM,2.71 µM,> 100 µM,4.36 µM,> 100 µM,8.58 µM,> 100 µM
c1ccc(-c2nc(-c3ccccc3)c(-c3ccccc3)[nH]2)cc1,–,> 100 µM,–,> 100 µM,–,> 100 µM,–,> 100 µM,–,> 100 µM,–,> 82 µM,–,> 100 µM,–,> 100 µM,–,> 100 µM,–,> 100 µM
C=C1C(=O)O[C@H]2[C@H]1CC/C(COC(=O)CSCC(=O)OC/C1=C/CC[C@@]3(C)O[C@H]3[C@H]3OC(=O)C(=C)[C@@H]3CC1)=C\CC[C@@]1(C)O[C@@H]21,2.26 µM,7.07 µM,2.12 µM,4.56 µM,1.85 µM,3.86 µM,1.58 µM,3.1 µM,1.02 µM,2.44 µM,3.52 µM,19.3 µM,5 µM,18.2 µM,1.63 µM,3.87 µM,1.23 µM,2.48 µM,15.6 µM,29.1 µM
C=CCC1(O)c2cccc(NCCO)c2C(=O)c2c(NCCO)cccc21,> 100 µM,> 100 µM,> 100 µM,> 100 µM,> 100 µM,> 100 µM,> 100 µM,> 100 µM,> 100 µM,> 100 µM,> 100 µM,> 100 µM,> 100 µM,> 100 µM,> 100 µM,> 100 µM,> 100 µM,> 100 µM,> 100 µM,> 100 µM
NS(=O)(=O)c1cccc(N=Cc2c(O)[nH]c3ccccc23)c1,> 25 µM,> 25 µM,> 25 µM,> 25 µM,> 25 µM,> 25 µM,> 25 µM,> 25 µM,> 25 µM,> 25 µM,> 25 µM,> 25 µM,> 25 µM,> 25 µM,> 25 µM,> 25 µM,> 23.1 µM,> 25 µM,> 18.5 µM,> 25 µM
O=C(O)c1cc(N=Cc2ccccc2O)cc(C(=O)O)c1,–,> 100 µM,–,> 100 µM,–,> 100 µM,–,> 100 µM,–,> 100 µM,–,> 100 µM,–,> 100 µM,–,> 100 µM,–,> 100 µM,–,> 100 µM
C=C(c1ccc(C(=O)N(C)c2ccccc2N)cc1)C(C)N1C(=O)[C@H]2CCCN2C(=O)c2ccccc21 (stereo not given in full),61.6 µM,> 100 µM,23.6 µM,> 100 µM,11.5 µM,> 100 µM,34.2 µM,> 100 µM,38.1 µM,> 100 µM,53.1 µM,> 100 µM,68.8 µM,> 100 µM,50.1 µM,> 100 µM,36.5 µM,> 100 µM,6.72 µM,84.2 µM
